Measurements from ChEMBL document CHEMBL6078646, “Target Ligand Separation and Identification of Isoforsythiaside as a Histone Lysine-Specific Demethylase 1 Covalent Inhibitor Against Breast Cancer Metastasis” (J Med Chem, 2024).
pIC50: −log10 of the molar value. Activity calls are given as the source filed them. The calls are words filed in the database; no cut-off is given here. Residues, ends and D or L forms follow the SMILES beside them. *: point of attachment. Cbz = O=C(OCc1ccccc1)*

Key:
[1] = target: T1, Lysine-specific histone demethylase 1A (Homo sapiens, UniProt O60341); test: Inhibition of recombinant His-tagged LSD1 (157 to 852 residues) (unknown origin) expressed in Escherichia coli BL21 (DE3) cells using H3K4me2 peptide as substrate incubated for 30 mins by fluorescence microplate reader analysis
MDA-MB-231 [2] = test: Antimetastatic activity against human MDA-MB-231 cells expressing luciferase xenografted in female Balb/c nude mouse assessed as reduction in fluorescence intensity in lungs at 10 mg/kg, ip administered every 3 days and measured on day 15 by bioluminescence imaging analysis relative to control; type: functional; set-up: scale not given: the % may be the effect or the level left; conditions: time 15 day
MDA-MB-231 [3] = test: Antitumor activity against human MDA-MB-231 cells expressing luciferase xenografted in female Balb/c nude mouse assessed as increase in body weight at 10 mg/kg, ip administered every 3 days and measured after 33 days; type: functional, organism-based; conditions: time 33.0 day
MDA-MB-231 [4] = test: Antimetastatic activity against human MDA-MB-231 cells expressing luciferase xenografted in female Balb/c nude mouse assessed as reduction in lung metastasis at 10 mg/kg, ip administered every 3 days and measured on day 30 by bioluminescence imaging analysis; type: functional, organism-based; conditions: time 30.0 day
MDA-MB-231 [5] = test: Antimetastatic activity against human MDA-MB-231 cells expressing luciferase xenografted in female Balb/c nude mouse assessed as smaller metastatic nodules in lung at 10 mg/kg, ip administered every 3 days and measured after 30 days by H and E staining based analysis; type: functional, organism-based; conditions: time 30.0 day
MDA-MB-231 [6] = test: Antimetastatic activity against human MDA-MB-231 cells expressing luciferase xenografted in female Balb/c nude mouse assessed as reduction in number of metastatic nodules in the lung at 10 mg/kg, ip administered every 3 days and measured after 30 days by H and E staining based histopathological analysis relative to control; type: functional; set-up: scale not given: the % may be the effect or the level left; conditions: time 30 day
[7] = target: T1, Lysine-specific histone demethylase 1A; test: Binding affinity to recombinant LSD1 (unknown origin) at S817 residue by LC-MS/MS analysis
[8] = Retention time of the compound by HPLC-MS/MS analysis; type: physicochemical
MDA-MB-231 [9] = test: Induction of LSD1 degradation in human MDA-MB-231 cells incubated for 12 hrs by Western blotting analysis; type: cell-based
MDA-MB-231 [10] = test: Inhibition of MMP2 production in human MDA-MB-231 cells at 16 uM by Western blotting analysis; type: functional, cell-based
MDA-MB-231 [11] = test: Inhibition of Twist1 production in human MDA-MB-231 cells at 16 uM by Western blotting analysis; type: functional, cell-based
MDA-MB-231 [12] = test: Upregulation of RBMS3 protein expression in human MDA-MB-231 cells at 16 uM by Western blotting analysis; type: functional, cell-based

**Q.** With `CC(=O)O[C@H]1C(=O)[C@@]2(C)[C@H]([C@H](OC(=O)c3ccccc3)[C@]3(O)C[C@H](OC(=O)[C@H](O)[C@@H](NC(=O)c4ccccc4)c4ccccc4)C(C)=C1C3(C)C)[C@]1(OC(C)=O)CO[C@@H]1C[C@@H]2O` [PACLITAXEL] as the molecule, how does the pIC50 [1] read?
**A.** 7.53

**Q.** What about the Activity (MDA-MB-231 [2]) of the same molecule?
**A.** 89.6%

**Q.** And the Activity (MDA-MB-231 [3])?
**A.** Active; Slight Attenuation Of Body Weight Loss Observed

**Q.** What about the Activity (MDA-MB-231 [4]) of the same molecule?
**A.** Active

**Q.** And the Activity (MDA-MB-231 [5])?
**A.** Active

**Q.** What about the Activity (MDA-MB-231 [6]) of the same molecule?
**A.** 55.5%

**Q.** What does the source list for `C[C@@H]1O[C@H](OC[C@H]2O[C@@H](OCCc3ccc(O)c(O)c3)[C@H](O)[C@@H](OC(=O)CCc3ccc(O)c(O)c3)[C@@H]2O)[C@H](O)[C@H](O)[C@H]1O`?
**A.** inhibition [1]: inactive; Activity [7]: inactive

**Q.** With `C[C@@H]1O[C@@H](OC[C@H]2O[C@@H](OCCc3ccc(O)c(O)c3)[C@H](O)[C@@H](O)[C@@H]2OC(=O)/C=C/c2ccc(O)c(O)c2)[C@H](O)[C@H](O)[C@H]1O` [FORSYTHIASIDE] as the molecule, how does the pIC50 [1] read?
**A.** 5.09

**Q.** What about the Retention_time [8] of the same molecule?
**A.** 31.9 min

**Q.** For `CC(C)C[C@@H](C=O)NC(=O)[C@H](CC(C)C)NC(=O)[C@H](CC(C)C)NC(=O)OCc1ccccc1` (Cbz-Leu-Leu-Leu-aldehyde), which Activity (MDA-MB-231 [9]) is on record?
**A.** inactive

**Q.** With `C[C@@H]1O[C@@H](O[C@@H]2[C@@H](O)[C@H](OCCc3ccc(O)c(O)c3)O[C@H](CO)[C@H]2OC(=O)/C=C/c2ccc(O)c(O)c2)[C@H](O)[C@H](O)[C@H]1O` [ACETOSIDE] as the molecule, how does the pIC50 [1] read?
**A.** 5.44

**Q.** What about the Retention_time [8] of the same molecule?
**A.** 25.8 min

**Q.** Which inhibition (MDA-MB-231 [10]) does the source give for `N[C@H]1CC[C@H](N[C@@H]2C[C@H]2c2ccccc2)CC1` here?
**A.** Active

**Q.** What about the inhibition (MDA-MB-231 [11]) of the same molecule?
**A.** Active

**Q.** What about the AC30 (MDA-MB-231 [12]) of the same molecule?
**A.** Active

**Q.** With `COc1ccc([C@@H]2OC[C@H]3[C@@H]2CO[C@@H]3c2ccc(O[C@H]3O[C@H](CO)[C@@H](O)[C@H](O)[C@H]3O)c(OC)c2)cc1OC` as the molecule, how does the pIC50 [1] read?
**A.** 5.26

**Q.** And the Retention_time [8]?
**A.** 40.6 min
